Source: patent publication US8697739B2, “Bicyclic acetyl-CoA carboxylase inhibitors and uses thereof” (Novartis AG, priority 2010, dated 2014)
pIC50: −log10 of the molar value.

target: T1, human acetyl-CoA carboxylase 2 (ACC2) (Homo sapiens, UniProt O00763); experiment: Acetyl-CoA carboxylase enzyme assay (malonyl-CoA formation by LC/MS/MS); type: biochemical; conditions: recombinant human ACC2 (aa 144-2458); read-out: IC50 ACC2
T1 construct: The cDNA encoding amino acids 144 to 2458 of human acetyl-CoA carboxylase 2; made in house; host or cells: Sf9 insect cells (baculovirus, pFastBac1)
T1 sequence (O00763 144-2458): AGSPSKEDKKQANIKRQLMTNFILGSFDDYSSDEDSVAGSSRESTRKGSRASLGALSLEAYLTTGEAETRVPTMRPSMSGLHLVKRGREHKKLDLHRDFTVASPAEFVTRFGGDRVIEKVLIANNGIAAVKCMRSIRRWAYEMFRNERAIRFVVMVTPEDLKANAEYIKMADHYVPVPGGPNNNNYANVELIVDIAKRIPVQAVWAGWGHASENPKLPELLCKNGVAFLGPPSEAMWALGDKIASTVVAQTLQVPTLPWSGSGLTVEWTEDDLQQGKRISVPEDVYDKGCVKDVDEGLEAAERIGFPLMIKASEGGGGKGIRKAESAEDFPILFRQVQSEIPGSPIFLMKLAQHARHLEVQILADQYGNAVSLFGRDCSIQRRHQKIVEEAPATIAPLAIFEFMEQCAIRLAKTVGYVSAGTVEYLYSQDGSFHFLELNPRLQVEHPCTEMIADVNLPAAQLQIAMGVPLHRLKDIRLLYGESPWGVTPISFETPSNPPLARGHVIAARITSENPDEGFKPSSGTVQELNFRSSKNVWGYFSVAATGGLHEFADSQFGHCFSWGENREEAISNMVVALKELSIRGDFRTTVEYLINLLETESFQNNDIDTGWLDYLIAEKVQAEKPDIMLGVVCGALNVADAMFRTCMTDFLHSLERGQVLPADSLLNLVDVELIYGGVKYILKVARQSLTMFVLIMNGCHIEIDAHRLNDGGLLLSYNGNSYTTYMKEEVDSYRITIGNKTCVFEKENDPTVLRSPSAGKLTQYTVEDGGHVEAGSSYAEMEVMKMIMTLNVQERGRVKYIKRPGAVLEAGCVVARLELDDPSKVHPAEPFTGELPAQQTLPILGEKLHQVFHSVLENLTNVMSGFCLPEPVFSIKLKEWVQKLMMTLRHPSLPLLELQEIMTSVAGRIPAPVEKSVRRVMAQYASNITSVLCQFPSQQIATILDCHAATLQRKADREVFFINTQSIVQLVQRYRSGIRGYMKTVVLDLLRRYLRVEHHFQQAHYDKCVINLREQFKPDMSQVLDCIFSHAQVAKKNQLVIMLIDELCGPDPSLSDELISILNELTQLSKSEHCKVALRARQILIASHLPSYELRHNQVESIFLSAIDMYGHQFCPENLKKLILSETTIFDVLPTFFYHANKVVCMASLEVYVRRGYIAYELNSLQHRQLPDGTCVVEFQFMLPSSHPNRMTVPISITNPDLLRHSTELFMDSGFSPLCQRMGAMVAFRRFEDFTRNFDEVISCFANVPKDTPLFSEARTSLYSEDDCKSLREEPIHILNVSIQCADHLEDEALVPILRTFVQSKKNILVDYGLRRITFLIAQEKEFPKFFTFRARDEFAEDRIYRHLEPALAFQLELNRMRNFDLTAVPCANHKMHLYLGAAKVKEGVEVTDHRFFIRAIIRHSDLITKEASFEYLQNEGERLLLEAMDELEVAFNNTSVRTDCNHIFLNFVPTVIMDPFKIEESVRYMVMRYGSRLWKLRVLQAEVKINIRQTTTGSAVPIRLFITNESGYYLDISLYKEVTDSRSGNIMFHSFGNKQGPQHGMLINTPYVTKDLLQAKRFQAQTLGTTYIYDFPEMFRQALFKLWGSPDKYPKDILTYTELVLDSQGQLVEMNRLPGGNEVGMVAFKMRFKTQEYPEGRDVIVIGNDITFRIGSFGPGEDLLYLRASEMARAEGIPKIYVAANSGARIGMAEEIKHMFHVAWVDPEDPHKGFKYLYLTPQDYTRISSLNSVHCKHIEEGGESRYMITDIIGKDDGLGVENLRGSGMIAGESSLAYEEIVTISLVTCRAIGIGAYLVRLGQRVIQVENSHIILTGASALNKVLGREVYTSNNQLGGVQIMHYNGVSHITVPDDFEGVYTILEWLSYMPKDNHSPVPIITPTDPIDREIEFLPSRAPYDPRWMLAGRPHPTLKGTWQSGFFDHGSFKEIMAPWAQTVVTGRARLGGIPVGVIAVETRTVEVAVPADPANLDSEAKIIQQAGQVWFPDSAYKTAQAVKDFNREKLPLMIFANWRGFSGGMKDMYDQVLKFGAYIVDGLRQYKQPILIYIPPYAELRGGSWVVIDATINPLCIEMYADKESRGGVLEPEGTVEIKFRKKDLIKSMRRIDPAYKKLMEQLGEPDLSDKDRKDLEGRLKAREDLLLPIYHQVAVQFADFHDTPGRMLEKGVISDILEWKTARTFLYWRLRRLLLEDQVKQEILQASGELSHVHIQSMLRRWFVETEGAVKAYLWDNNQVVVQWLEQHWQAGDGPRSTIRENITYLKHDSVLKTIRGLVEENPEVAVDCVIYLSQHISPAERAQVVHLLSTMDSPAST
How it was run: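 Malonyl-CoA formation was read by LC/MS/MS MRM against a [13C3]-malonyl-CoA internal standard, after acetic acid quench. The enzyme was baculovirus/Sf9-expressed human ACC2 residues 144–2458, given 15 minutes room-temperature compound preincubation in HEPES pH 7.5 buffer with MgCl2, citrate and DTT. Substrate solution held 50 μM acetyl-CoA, 120 μM ATP and 2 mM KHCO3.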

| pIC50 | SMILES |
| --- | --- |
| 6.55 | CC(C)OC(=O)c1ccc(NS(=O)(=O)c2ccc3[nH]c(Nc4ccc(N(C)C)cc4)nc3c2)cc1 [Example 551, isopropyl 4-(2-(4-(dimethylamino)phenylamino)-1H-benzo[d]imidazole-5-sulfonamido)benzoate] |
| 6.07 | CCOc1ccc2cc(S(=O)(=O)N[C@H]3CC[C@H](C(=O)N[C@H](C)c4ccccn4)CC3)ccc2n1 [Example 82, (1r,4R)-4-(2-ethoxyquinoline-6-sulfonamido)-N-((R)-1-(pyridin-2-yl)ethyl)cyclohexanecarboxamide] |
| 6.60 | Cc1nc2cc(S(=O)(=O)N[C@H]3CC[C@H](C(=O)N[C@H](C)c4ccc(F)cc4)CC3)ccc2[nH]1 [Example 663, (1r,4R)-N-((R)-1-(4-fluorophenyl)ethyl)-4-(2-methyl-1H-benzo[d]imidazole-5-sulfonamido)cyclohexanecarboxamide] |
| 6.48 | CC(C)OC(=O)c1ccc(NS(=O)(=O)c2ccc3[nH]c(Nc4ccc(C#N)cc4)nc3c2)cc1 [Example 552, isopropyl 4-(2-(4-cyanophenylamino)-1H-benzo[d]imidazole-5-sulfonamido)benzoate] |
| 6.39 | Cc1cccc(Nc2nc3cc(S(=O)(=O)Nc4ccc(C(=O)OC(C)C)cc4)ccc3[nH]2)c1 [Example 536, isopropyl 4-(2-(m-tolylamino)-1H-benzo[d]imidazole-5-sulfonamido)benzoate] |
| 6.74 | COc1ccc(Nc2nc3cc(S(=O)(=O)N[C@H]4CC[C@H](c5nnc(C(C)(C)C)o5)CC4)ccc3[nH]2)cc1 [Example 596, N-((1r,4r)-4-(5-tert-butyl-1,3,4-oxadiazol-2-yl)cyclohexyl)-2-(4-methoxyphenylamino)-1H-benzo[d]imidazole-5-sulfonamide] |
| 7.03 | C[C@@H](NC(=O)[C@H]1CC[C@H](NS(=O)(=O)c2ccc3nc(Cl)ccc3c2)CC1)c1ccc(F)cc1 [Example 42, (1r,4R)-4-(2-chloroquinoline-6-sulfonamido)-N-((R)-1-(4-fluorophenyl)ethyl)cyclohexanecarboxamide] |
| 6.53 | CC(C)c1nnc([C@H]2CC[C@H](NS(=O)(=O)c3ccc4[nH]c(-c5ccc(N6CCN(C)CC6)cc5)nc4c3)CC2)o1 [Example 587, N-((1r,4r)-4-(5-isopropyl-1,3,4-oxadiazol-2-yl)cyclohexyl)-2-(4-(4-methylpiperazin-1-yl)phenyl)-1H-benzo[d]imidazole-5-sulfonamide] |
| 6.28 | CCOC(=O)Nc1ccc(Nc2nc3cc(S(=O)(=O)Nc4ccc(C(=O)OC(C)C)cc4)ccc3[nH]2)cc1 [Example 534, isopropyl 4-(2-(4-(ethoxycarbonylamino)phenylamino)-1H-benzo[d]imidazole-5-sulfonamido)benzoate] |
| 8.00 | COCCOc1ccc(-c2cc3ccc(S(=O)(=O)N[C@H]4CC[C@H](C(=O)N[C@H](C)c5ccc(F)cc5)CC4)cc3n2C)cc1 [Example 452, (1r,4R)-N-((R)-1-(4-fluorophenyl)ethyl)-4-(2-(4-(2-methoxyethoxy)phenyl)-1-methyl-1H-indole-6-sulfonamido)cyclohexanecarboxamide] |
| 6.65 | CC(C)OC(=O)c1ccc(NS(=O)(=O)c2ccc3[nH]c(Nc4cccc(F)c4)nc3c2)cc1 [Example 535, isopropyl 4-(2-(3-fluorophenylamino)-1H-benzo[d]imidazole-5-sulfonamido)benzoate] |
| 7.89 | C[C@@H](NC(=O)[C@H]1CC[C@H](NS(=O)(=O)c2ccc3[nH]c(-c4ccccc4)nc3c2)CC1)c1ccccc1 [Example 1, (1r,4R)-4-(2-phenyl-1H-benzo[d]imidazole-5-sulfonamido)-N—((R)-1-phenylethyl)cyclohexanecarboxamide] |
| 6.44 | COC1CCN(C(=O)[C@H]2CC[C@H](NS(=O)(=O)c3ccc4[nH]c(-c5ccccc5)nc4c3)CC2)CC1 [Example 669, N-((1r,4r)-4-(4-methoxypiperidine-1-carbonyl)cyclohexyl)-2-phenyl-1H-benzo[d]imidazole-5-sulfonamide] |

More lines, now with the values behind:

| SMILES | pIC50 |
| --- | --- |
| [2H]C([2H])([2H])N1CCOc2ccc(S(=O)(=O)N[C@H]3CC[C@H](C(=O)N[C@H](C)c4ccc(F)cc4)CC3)cc21 [Example 158, (1r,4R)-N-((R)-1-(4-fluorophenyl)ethyl)-4-(4-(trideuteriomethyl)-3,4-dihydro-2H-benzo[b][1,4]oxazine-6-sulfonamido)cyclohexanecarboxamide] | 7.70 |
| O=C(O)[C@@H]1CCCN(C(=O)[C@H]2CC[C@H](NS(=O)(=O)c3ccc4ccccc4c3)CC2)C1 [Example 163, (R)-1-((1r,4R)-4-(naphthalene-2-sulfonamido)cyclohexanecarbonyl)piperidine-3-carboxylic acid] | 5.07 |
| O=C([C@H]1CC[C@H](NS(=O)(=O)c2ccc3cc(-c4ccccc4)[nH]c3c2)CC1)N1CCOC[C@@H]1C1CC1 [Example 472, N-((1S,4r)-4-((S)-3-cyclopropylmorpholine-4-carbonyl)cyclohexyl)-2-phenyl-1H-indole-6-sulfonamide] | > 8.00 |
| O=C([C@H]1CC[C@H](NS(=O)(=O)c2cnc3ccccc3c2)CC1)N1CCCC1c1ccccc1 (stereo partly drawn) [Example 43, N-((1r,4r)-4-(2-phenylpyrrolidine-1-carbonyl)cyclohexyl)quinoline-3-sulfonamide] | 6.39 |
| Cc1ccccc1-c1cc2ccc(S(=O)(=O)N[C@H]3CC[C@H](C(=O)N4CCC[C@H]4C)CC3)cc2[nH]1 [Example 137, N-((1R,4r)-4-((R)-2-methylpyrrolidine-1-carbonyl)cyclohexyl)-2-o-tolyl-1H-indole-6-sulfonamide] | 6.79 |
| CC(C)OC(=O)c1ccc(NS(=O)(=O)c2ccc3[nH]c(-c4ccc(CN5CCOCC5)cc4)nc3c2)cc1 [Example 562, isopropyl 4-(2-(4-(morpholinomethyl)phenyl)-1H-benzo[d]imidazole-5-sulfonamido)benzoate] | 6.17 |
| C[C@@H](NC(=O)[C@H]1CC[C@H](NS(=O)(=O)c2ccc3cc(-c4c(Cl)cccc4Cl)[nH]c3c2)CC1)c1ccc(F)cc1 [Example 295, (1r,4R)-4-(2-(2,6-dichlorophenyl)-1H-indole-6-sulfonamido)-N-((R)-1-(4-fluorophenyl)ethyl)cyclohexanecarboxamide] | 6.32 |
| O=C([C@H]1CC[C@H](NS(=O)(=O)c2cnc3ccccc3c2)CC1)N1CCNCC1c1ccccc1 (stereo partly drawn) [Example 61, N-((1r,4r)-4-(2-phenylpiperazine-1-carbonyl)cyclohexyl)quinoline-3-sulfonamide] | 7.01 |
| O=C([C@H]1CC[C@H](NS(=O)(=O)c2ccc3c(c2)CCCN3)CC1)N1CCNCC1c1ccccc1 (stereo partly drawn) [Example 175, N-((1r,4r)-4-(2-phenylpiperazine-1-carbonyl)cyclohexyl)-1,2,3,4-tetrahydroquinoline-6-sulfonamide] | 6.92 |
| CCOC(=O)[C@H]1CCCN1C(=O)[C@H]1CC[C@H](NS(=O)(=O)c2ccc3cc(-c4ccccc4)n(C)c3c2)CC1 [Example 420, (R)-ethyl 1-((1r,4R)-4-(1-methyl-2-phenyl-1H-indole-6-sulfonamido)cyclohexanecarbonyl)pyrrolidine-2-carboxylate] | 6.14 |
| COC(=O)C12CC3CC(C1)C(NS(=O)(=O)c1ccc4oc5ccccc5c4c1)C(C3)C2 (stereo not drawn) [Example 265, 4-(Dibenzofuran-2-sulfonylamino)-adamantane-1-carboxylic acid methyl ester] | 6.16 |
